From patent publication US20250295652A1, “Inhibitors of Molluscum Contagiosum Infection and Methods Using the Same” (priority 2021, published 2025)
pEC50, pIC50: −log10 of the molar value. Like-named read-outs stand apart in the source and are kept apart here.

Tests used:
D4 [1] = target: T1, D4 (Vaccinia virus, UniProt P04303, Y163F); assay type: binding
MBP = target: T2, MBP (Escherichia coli, UniProt P0AEX9); experiment: DARTS, unrelated control protein MBP; assay type: binding; settings: crude cell lysates
T2 construct: made in house; host or cells: bacterial cells, crude lysate

[2] = test system: human estrogen receptor beta (ERβ-N), MBP fusion; experiment: DARTS, unrelated control protein ERβ-N; assay type: binding; settings: crude cell lysates
[3] = test system: duplex or single-stranded DNA; experiment: Isothermal titration calorimetry (ITC) DNA binding; settings: 40 μM compound, 25° C.
Experimental: Fish sperm DNA (USB Scientific, USA) was dissolved in water and fragmented by sonication in order to generate a random DNA mix. The fragmented DNA was then dialyzed into column buffer absence of glycerol. The 15-mer oligomer comprised of poly d(TC) (Integrated DNA Technologies, USA) was directly prepared in the same buffer without the dialysis step. DNA and compounds were prepared in the same dialysis buffer with added 2.5 mM DTT, 1% DMSO, and 0.005% Tween-20. DNA binding was then assessed by isothermal titration calorimetry (ITC) on a MicroCal iTC200 microcalorimeter (Malvern Instruments, United Kingdom) by titrating 3 μL/injection of 1.2 mg/mL of random DNA (with unknown molar concentration) or 5.3 mg/L of single-stranded DNA into the sample consisting of 40 μM of compound. Experiments were performed at 25° C. with 800 rpm stirring and 3-min spacing in order to allow equilibration. Ethidium bromide (Sigma-Aldrich, USA) was freshly prepared in water. Since the molar concentrations of the DNA ligands were undefined, only raw heat values are depicted.

VV = experiment: microbe, parasite or virus in culture; assay type: cell-based, vaccinia virus; settings: Orthopoxvirus vaccinia, BSC-1, read-out: VV EC50
[4] = target: T3, E9/A20/D4 proteins (vaccinia virus vD4) (Vaccinia virus, UniProt P04303, Y163F); assay type: biochemical
T3 construct: made in house; host or cells: TNT reticulocyte lysate (in vitro translation)

mD4-VV surrogate virus = experiment: microbe, parasite or virus in culture; assay type: cell-based, mD4/vaccinia hybrid virus; settings: Hybrid virus, BSC-1, read-out: mD4 EC50
[5] = target: E9/A20/D4 proteins (molluscum mD4) (Molluscum contagiosum virus, UniProt Q98260); experiment: biochemical
[6] = target: UL30 (DNA polymerase) and UL42 (processivity factor) (Human herpesvirus 1, UniProt P04293+P10226); assay type: biochemical, HSV-1
HSV-1 = assay type: cell-based; settings: Vero cells
D4 [7] = target: T1, D4; assay type: binding; design: made in house; host or cells: bacterial cells (IPTG induction); purified for SPR, crude lysate for DARTS
in vitro = settings: African green monkey
[8] = Irritancy on human cadaver skin; settings: gel formulated 99
Experimental: Briefly, gel was applied to shaved skin areas, covered for 24 hours and irritancy was measured daily for 3 days after uncovering using the Draize scoring system.

[9] = Solubility in receptor medium; settings: 1×PBS/4% BSA receptor medium, typical IVPT study
From the text: For this study, human torso skin was used rather than a membrane. Initially, methods development was done to identify the receiving medium in the reservoir of the Franz cell apparatus which provided the greatest compound solubility so that percentages of full penetration would not be underestimated due to poor solubility.

Chain of E9/A20/D4 proteins (molluscum mD4) (Q98260 1-226): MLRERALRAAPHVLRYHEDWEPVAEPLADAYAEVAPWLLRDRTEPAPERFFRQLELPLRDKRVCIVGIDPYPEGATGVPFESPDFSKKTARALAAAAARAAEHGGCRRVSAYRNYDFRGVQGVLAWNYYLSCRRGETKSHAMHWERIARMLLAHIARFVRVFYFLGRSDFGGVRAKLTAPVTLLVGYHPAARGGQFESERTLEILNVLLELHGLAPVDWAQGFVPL
Chain of UL30 (DNA polymerase) and UL42 (processivity factor) (P10226 whole entry): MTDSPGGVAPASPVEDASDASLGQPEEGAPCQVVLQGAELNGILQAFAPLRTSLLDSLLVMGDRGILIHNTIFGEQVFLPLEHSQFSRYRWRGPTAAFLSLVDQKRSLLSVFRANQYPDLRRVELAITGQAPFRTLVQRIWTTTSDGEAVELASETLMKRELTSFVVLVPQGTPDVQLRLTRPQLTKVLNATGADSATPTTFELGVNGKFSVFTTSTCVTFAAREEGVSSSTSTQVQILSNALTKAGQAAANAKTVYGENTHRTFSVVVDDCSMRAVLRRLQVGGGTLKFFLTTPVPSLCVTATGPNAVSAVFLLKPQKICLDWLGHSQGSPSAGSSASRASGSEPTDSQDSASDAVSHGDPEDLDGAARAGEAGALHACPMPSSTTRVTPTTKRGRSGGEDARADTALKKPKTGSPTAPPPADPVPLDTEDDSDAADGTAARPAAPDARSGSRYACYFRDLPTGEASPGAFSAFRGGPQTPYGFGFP
Chain of UL30 (DNA polymerase) and UL42 (processivity factor) (P04293 whole entry): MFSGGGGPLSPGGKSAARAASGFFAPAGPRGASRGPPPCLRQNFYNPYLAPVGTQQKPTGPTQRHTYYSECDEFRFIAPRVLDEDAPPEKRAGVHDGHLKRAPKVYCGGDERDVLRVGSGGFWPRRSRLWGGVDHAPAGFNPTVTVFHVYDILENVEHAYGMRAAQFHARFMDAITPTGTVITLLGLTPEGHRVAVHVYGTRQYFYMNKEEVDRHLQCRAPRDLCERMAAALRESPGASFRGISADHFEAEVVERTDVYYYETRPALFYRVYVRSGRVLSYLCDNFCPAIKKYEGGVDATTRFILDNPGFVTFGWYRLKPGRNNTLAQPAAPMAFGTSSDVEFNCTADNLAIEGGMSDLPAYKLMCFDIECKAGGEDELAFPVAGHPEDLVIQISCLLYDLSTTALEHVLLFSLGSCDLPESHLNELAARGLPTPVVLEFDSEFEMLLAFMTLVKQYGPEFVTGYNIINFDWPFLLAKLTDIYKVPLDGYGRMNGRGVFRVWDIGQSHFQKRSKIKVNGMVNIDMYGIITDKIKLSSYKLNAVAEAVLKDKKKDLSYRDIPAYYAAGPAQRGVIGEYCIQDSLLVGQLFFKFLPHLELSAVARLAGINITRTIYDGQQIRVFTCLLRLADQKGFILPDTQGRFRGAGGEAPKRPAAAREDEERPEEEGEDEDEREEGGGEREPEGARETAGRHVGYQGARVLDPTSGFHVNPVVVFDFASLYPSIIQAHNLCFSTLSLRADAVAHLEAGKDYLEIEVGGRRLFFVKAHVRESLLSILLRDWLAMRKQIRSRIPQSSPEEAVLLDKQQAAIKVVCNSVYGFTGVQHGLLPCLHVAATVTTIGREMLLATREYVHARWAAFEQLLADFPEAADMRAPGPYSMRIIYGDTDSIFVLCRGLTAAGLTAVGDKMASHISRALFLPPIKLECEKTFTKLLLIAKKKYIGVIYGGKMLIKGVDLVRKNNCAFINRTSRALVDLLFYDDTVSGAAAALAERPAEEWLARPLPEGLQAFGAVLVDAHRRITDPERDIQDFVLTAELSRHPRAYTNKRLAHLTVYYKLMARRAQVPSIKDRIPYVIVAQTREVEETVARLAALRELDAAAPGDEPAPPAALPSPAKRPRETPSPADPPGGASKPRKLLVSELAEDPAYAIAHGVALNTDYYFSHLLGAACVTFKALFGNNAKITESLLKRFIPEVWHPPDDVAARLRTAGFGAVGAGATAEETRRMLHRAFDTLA

SMILES	ΔTm (D4 [1]; 25 µM)	ΔTm (D4 [1]; 50 µM)	effect on MBP protein levels after proteolysis (in words) (MBP)	effect on ERβ-N protein levels after proteolysis (in words) [2]	DNA binding heat traces (in words) [3]	pEC50 (VV)	inhibition of VACV DNA synthesis compared with mD4 reaction (in words) [4]	pEC50 (mD4-VV surrogate virus)	pIC50 [5]	inhibition of DNA synthesis using HSV-1 proteins (in words) [6]	antiviral activity against HSV-1 infection (in words) (HSV-1)	effect on D4 protein levels after Pronase proteolysis (in words) (D4 [7])	CC50 (in vitro)	irritancy score [8]	solubility sufficient to detect % of the applied amount [9]
CCC(C(=O)Nc1sc(C(N)=O)c(C)c1C(=O)OC)c1ccccc1 (stereo not shown) [Compound 1, methyl 5-carbamoyl-4-methyl-2-(2-phenylbutanamido)thiophene-3-carboxylate]	−0.86	−1.55	inability	inability	no appreciable total heats	4.82	Nearly identical inhibition	4.64	4.79	no inhibition	lack of antiviral activity	increase in D4 protein levels	–	–	–
CCC(C(=O)Nc1sc(C(=O)O)c(C)c1C(=O)OC)c1ccc(C(F)(F)F)cc1 (stereo not shown) [Compound 199, 4-(methoxycarbonyl)-5-(2-(4-(trifluoromethyl)phenyl)butanamido)-3-methylthiophene-2-carboxylic acid]	–	–	–	–	–	–	–	4.75	–	–	–	–	> 100 µM	–	–
CCC(C(=O)Nc1sc(C(N)=O)c(C)c1C(=O)OC)c1ccc(F)cc1 (stereo not shown) [Compound 99, 5-Carbamoyl-2-[2-(4-fluoro-phenyl)-butyrylamino]-4-methyl-thiophene-3-carboxylic acid methyl ester]	–	–	–	–	–	5.05	–	5.06	5.05	–	–	–	–	non-irritant	up to 143%
